Experimental data published in patent publication EP0401096A1, “Agents and complexes of ion Mg++ facilitating absorption of magnesium in a human or animal organism, and pharmaceutical or dietetic compositions useful for the administration of magnesium in a human or animal organism” (LABORATOIRES LUCIEN, priority 1989, dated 1990).

Columns and labels:
[1] = Potentiometric titration, protonation constants of the ligand ([…]); assay type: physicochemical; conditions: proton-malonate, aqueous solution, 37°C
Protocol: La méthode potentiométrique associée aux techniques informatiques a été utilisée pour cette étude. Les constantes de protonation du ligand, utilisées par la suite comme références, ont été calculées au moyen d'un programme informatique ([…]) à partir de données expérimentales provenant de titrages réalisés en solution aqueuse à 37°C et sous atmosphère d'azote.
(§1) A partir des données expérimentales des titrages, le programme […] calcule les constantes par la méthode des moindres carrés. Parmi les différentes combinaisons de complexes possibles, seules sont retenues celles pour lesquelles les critères numériques (notamment la somme des carrés des résidus) sont convenables. Le meilleur ensemble est finalement choisi d'après le tracé des courbes de formation simulées au moyen d'un troisième programme informatique (PSEUDOPLOT) : c'est celui qui permet d'obtenir la meilleure coïncidence entre courbes expérimentale (figure 2) et simulée (figure 3).

[2] = Potentiometric titration, formation constants of calcium-ligand complexes; assay type: physicochemical; conditions: calcium-malonate, complexe ML (charge 0); 37°C
Source text: Trois cas possibles a priori ont été effectivement rencontrés : • i) si aucune complexation n'est constatée dans les conditions expérimentales précisées plus haut, c'est à dire si le degré de complexation reste nul sur tout le domaine de concentrations en ligand examiné, aucune espèce complexe indépendante ne peut exister dans le fluide gastro-intestinal. Ceci ne signifie pas que les ligands envisagés ne puissent pas coordonner le magnésium à des concentrations beaucoup plus élevées, mais cette possibilité se rapportant à des conditions extra-physiologiques ne présente pas d'intérêt dans le cadre de l'invention. • ii) si l'ensemble de complexes sélectionné d'après les critères ci-dessus n'est constitué que d'espèces ionisées, il est impossible à ces dernières de se dissoudre dans la membrane phospholipidique; les ligands correspondants ne peuvent donc être utilisés comme vecteurs pour l'absorption gastro-intestinale du magnésium. • iii) si l'ensemble retenu contient une ou plusieurs espèces neutres, les ligands correspondants peuvent être a priori des vecteurs efficaces pour l'absorption du magnésium par les membranes séparant le biofluide d'un biofluide voisin. Leur efficacité dépendra toutefois de la proportion de ces espèces neutres dans les conditions thérapeutiques. […]

[3] = Potentiometric titration, formation constants of magnesium-ligand complexes ([…], ZAPAPLOT, PSEUDOPLOT); assay type: physicochemical; conditions: magnésium-malonate, 37°C
Source text: La complexation dans chaque système magnésium-ligand a ensuite été étudiée à partir de plusieurs titrages en solution aqueuse du ligand en présence de magnésium, pour différents rapports de concentrations métal-ligand correspondant à l'éventail le plus large possible de conditions thérapeutiques. Ces dosages se traduisent graphiquement par le tracé des courbes de protonation s = f ( -log[H] ), où s est le nombre moyen de protons liés au ligand. Ce type de courbes permet de visualiser la complexation. Par exemple, sur la figure 1, relative au système magnésium-malonate, on a représenté la courbe de protonation de référence du ligand par un trait plein et matérialisé les points expérimentaux des titrages du ligand en présence de magnésium par les symboles +, x, , □, ◁ dans l'ordre des rapports de concentrations métal/ligand croissants. On remarque deux zones de pH différentes : - l'une, de pH 2 à 3, pour laquelle les points se superposent à la courbe de protonation de référence, ce qui dénote une absence totale de complexation, - l'autre, de pH 3 à 7, pour laquelle les points sont décalés vers la gauche par rapport à la protonation de référence, c'est-à-dire vers des pH plus acides. Il y a donc une libération d'ions H+ en solution due à la complexation des ions Mg2+ par le malonate.
Cette complexation est confirmée par le tracé de la courbe de formation expérimentale p = f ( -log [L] ) au moyen d'un autre programme (ZAPAPLOT) où p est le nombre moyen de ligands liés au métal (représenté par le degré de formation DF à la figure 2). L'allure de cette courbe donne une idée de la forme sous laquelle le ligand intervient dans les complexes formés et permet d'estimer la valeur de leurs constantes de formation.
as §1

[4] = Magnesium balance in rats after oral administration (first experiment, 3 lots of 20); assay type: in vivo, rat; conditions: mean (M), oral 38,88 mg de Mg2+/kg
Protocol: L'essai porte sur 60 rats mâles S.P.F. de souche "CD", d'un poids moyen de 60 à 80 g à leur arrivée. Ils sont maintenus en animalerie conventionnelle dans des conditions identiques de température (21°C +/- 1°C), d'hygrométrie (40 à 70 %) et de luminosité (12h/24).
Dès leur arrivée, les animaux sont placés en cage à métabolisme et reçoivent un aliment contenant 570 mg de Mg2+/kg : concentration nécessaire et suffisante pour maintenir chez l'animal une magnésémie normale.
4 jours après leur arrivée, au temps "t-16h" de l'essai, soit 16 h avant l'administration des traitements (temps "t"), les animaux sont pesés, mis à jeun et le volume d'eau déminéralisée mis à leur disposition est exactement mesuré.
Au temps "t-1h" soit 1 h avant l'administration des traitements, l'eau de boisson est retirée. Elle est redistribuée 30 minutes après cette administration, le volume étant exactement mesuré.
Au temps "t+24h" les animaux sont sacrifiés par dislocation cervicale et le contenu de la vessie et des intestins est prélevé.
Les animaux sont répartis en 3 lots de 20 animaux chacun : • . Lot I : Témoins recevant 40 ml/kg d'eau déminéralisée; • . Lot II : Traités recevant 38,88 mg de Mg2+/kg sous forme de MgCl2, sous un volume de 40 ml/kg d'eau déminéralisée; • . Lot III : Traités recevant l'association "MgCl2 + acide malique" à la dose de 38,88 mg de Mg2+/kg sous forme de MgCl2 + 408 mg d'acide malique/kg, sous un volume de 40 ml/kg d'eau déminéralisée (pH ajusté à 5), ce qui correspond à une concentration en magnésium CMg = 0,04 mol.dm-3 et à une concentration de (DL)-malate CDLM = 0,076 mol.dm-3.
• a/ - Avant traitement : "t - 16 h" à "t" . Recueil des urines et mesure du volume. . Mesure de la consommation hydrique/15 h (les animaux étant privés d'eau de boisson 1 h avant l'administration des traitements). • b/ - Traitement : "t" . Pesée des animaux. . Administration des traitements, voie orale, par tubage oesophagien. • c/ - Après traitement : "t" à "t + 24 h" • c.1. Exploration urinaire : . […]

[5] = Magnesium balance in rats after oral administration (experiment coded 1.33, 4 lots of 18); assay type: in vivo, rat; conditions: mean (M), experiment 1.33
Source text: D'autres expérimentations basées sur des protocoles comparables ont confirmé les résultats ci-dessus. Elles ne feront pas toutefois l'objet d'une présentation en détails. Seuls les résultats de l'expérimentation suivante mettant en jeu l'acide malique et l'acide citrique seront présentés de façon globale dans les tableaux 10 et 11 ci-après.
La nouvelle expérimentation (codée 1.33) a été réalisée sur 4 lots de 18 animaux chacun, les lots I, II et III recevant les mêmes traitements que ceux administrés aux lots correspondants dans le cadre de l'expérimentation précédente et le lot IV recevant l'association "MgCl2 + acide citrique" à la dose de 38,88 mg de Mg2+/kg sous forme de MgCl2 + 1345 mg d'acide citrique/kg, sous un volume de 40 ml/kg d'eau déminéralisée (pH ajusté à 5), ce qui correspond à une concentration en magnésium CMg = 0,04 mol.dm-3 et à une concentration de citrate CTA = 0,16 mol.dm-3. Tableau 10

[6] = coefficient d'utilisation digestive

| C. abs. ([4]; coefficient d'absorption) | C.u.d. [4, 6] | C.r. ([4]; coefficient de rétention) | C. abs. ([5]; coefficient d'absorption) | C.u.d. [5, 6] | C.r. ([5]; coefficient de rétention) | MgF/24 h ([5]; faecal magnesium, oral 38,88 mg de Mg2+/kg) | MgU/24 h ([5]; urinary magnesium, oral 38,88 mg de Mg2+/kg) | SMILES | log β ([1]; complexe LH2) | log β ([1]; complexe LH) | log β [2] | log β ([3]; complexe ML3) | log β ([3]; complexe ML (charge 0)) | log β ([3]; complexe MLH-1) | log β ([3]; complexe MLH) |
| --- | --- | --- | --- | --- | --- | --- | --- | --- | --- | --- | --- | --- | --- | --- | --- |
|  |  |  |  |  |  |  |  | O=C(O)CC(=O)O [MLO, malonate] | 7,815 | 5,235 | 1,511 | 5,266 | 2,064 | 6,326 | 5,524 |
| 38,948 | 73,617 | 50,083 | 30,19 | 66,89 | 43,78 | 2,003 mg/100 g de rat | 1,873 mg/100 g de rat | [Cl-].[Cl-].[Mg+2] [Lot II, MgCl2] |  |  |  |  |  |  |  |
